Test results reported in ChEMBL document CHEMBL5608186, “Design, synthesis and structure-activity relationships of novel non-ketolides: 9-Oxime clarithromycin featured with seven-to thirteen-atom-length diamine linkers at 3-OH” (Eur J Med Chem, 2024).
Converted amounts (≈) assume the structure as drawn.

What was measured:
Format in all cases: functional
[1] = test system: Staphylococcus aureus; test: Bactericidal activity against methicillin-resistant Staphylococcus aureus PU 20 harboring c-ermA gene incubated for 16 to 20 hrs by CLSI based broth microdilution method; settings: time 16-20 hrs
[2] = test system: Staphylococcus aureus; test: Antibacterial activity against methicillin-resistant Staphylococcus aureus PU 20 harboring c-ermA gene incubated for 16 to 20 hrs by CLSI based broth microdilution method; settings: time 16-20 hrs
[3] = test system: Staphylococcus aureus; test: Selectivity ratio of MBC for methicillin-resistant Staphylococcus aureus PU 32 harboring i-ermA gene to MIC for methicillin-resistant Staphylococcus aureus PU 32 harboring i-ermA gene
[4] = test system: Staphylococcus aureus; test: Bactericidal activity against methicillin-resistant Staphylococcus aureus PU 32 harboring i-ermA gene incubated for 16 to 20 hrs by CLSI based broth microdilution method; settings: time 16-20 hrs
[5] = test system: Staphylococcus aureus; test: Antibacterial activity against methicillin-resistant Staphylococcus aureus PU 32 harboring i-ermA gene incubated for 16 to 20 hrs by CLSI based broth microdilution method; settings: time 16-20 hrs
[6] = test system: Streptococcus pyogenes; test: Selectivity ratio of MBC for Streptococcus pyogenes 01-968 harboring i-ermB gene to MIC for Streptococcus pyogenes 01-968 harboring i-ermB gene
[7] = test system: Streptococcus pyogenes; test: Bactericidal activity against Streptococcus pyogenes 01-968 harboring i-ermB gene incubated for 16 to 20 hrs by CLSI based broth microdilution method; settings: time 16-20 hrs
[8] = test system: Streptococcus pyogenes; test: Antibacterial activity against Streptococcus pyogenes 01-968 harboring i-ermB gene incubated for 16 to 20 hrs by CLSI based broth microdilution method; settings: time 16-20 hrs
[9] = test system: Haemophilus influenzae; test: Selectivity ratio of MBC for Haemophilus influenzae ATCC 49247 to MIC for Haemophilus influenzae ATCC 49247
[10] = test system: Haemophilus influenzae; test: Bactericidal activity against Haemophilus influenzae ATCC 49247 incubated for 16 to 20 hrs by CLSI based broth microdilution method; settings: time 16-20 hrs
[11] = test system: Haemophilus influenzae; test: Antibacterial activity against Haemophilus influenzae ATCC 49247 incubated for 16 to 20 hrs by CLSI based broth microdilution method; settings: time 16-20 hrs
[12] = test system: Streptococcus pneumoniae; test: Selectivity ratio of MBC for Streptococcus pneumoniae 07P390 harboring c-erm gene to MIC for Streptococcus pneumoniae 07P390 harboring c-erm gene
[13] = test system: Streptococcus pneumoniae; test: Bactericidal activity against Streptococcus pneumoniae 07P390 harboring c-erm gene incubated for 16 to 20 hrs by CLSI based broth microdilution method; settings: time 16-20 hrs
[14] = test system: Streptococcus pneumoniae; test: Antibacterial activity against Streptococcus pneumoniae 07P390 harboring c-erm gene incubated for 16 to 20 hrs by CLSI based broth microdilution method; settings: time 16-20 hrs
[15] = test system: Streptococcus pneumoniae; test: Selectivity ratio of MBC for Streptococcus pneumoniae PU 09 harboring mef gene to MIC for Streptococcus pneumoniae PU 09 harboring mef gene
[16] = test system: Streptococcus pneumoniae; test: Bactericidal activity against Streptococcus pneumoniae PU 09 harboring mef gene incubated for 16 to 20 hrs by CLSI based broth microdilution method; settings: time 16-20 hrs
[17] = test system: Streptococcus pneumoniae; test: Selectivity ratio of MBC for Streptococcus pneumoniae ATCC 49619 to MIC for Streptococcus pneumoniae ATCC 49619
[18] = test system: Streptococcus pneumoniae; test: Antibacterial activity against Streptococcus pneumoniae PU 09 harboring mef gene incubated for 16 to 20 hrs by CLSI based broth microdilution method; settings: time 16-20 hrs
[19] = test system: Streptococcus pneumoniae; test: Bactericidal activity against Streptococcus pneumoniae ATCC 49619 incubated for 16 to 20 hrs by CLSI based broth microdilution method; settings: time 16-20 hrs
[20] = test system: Streptococcus pneumoniae; test: Antibacterial activity against Streptococcus pneumoniae ATCC 49619 incubated for 16 to 20 hrs by CLSI based broth microdilution method; settings: time 16-20 hrs
[21] = test system: Staphylococcus aureus; test: Selectivity ratio of MBC for methicillin-resistant Staphylococcus aureus PU 20 harboring c-ermA gene to MIC for methicillin-resistant Staphylococcus aureus PU 20 harboring c-ermA gene

Row | SMILES | MBC [1] | MIC [2] | Selectivity ratio [3] | MBC [4] | MIC [5] | Selectivity ratio [6] | MBC [7] | MIC [8] | Selectivity ratio [9] | MBC [10] | MIC [11] | Selectivity ratio [12] | MBC [13] | MIC [14] | Selectivity ratio [15] | MBC [16] | Selectivity ratio [17] | MIC [18] | MBC [19] | MIC [20] | also measured
1 | CC[C@H]1OC(=O)[C@H](C)[C@@H](OC(=O)CCN2CCN(c3cc4c(cc3F)c(=O)c(C(=O)O)cn4C3CC3)CC2)[C@H](C)[C@@H](O[C@@H]2O[C@H](C)C[C@H](N(C)C)[C@H]2O)[C@](C)(OC)C[C@@H](C)/C(=N\OCCCc2cncc(C(=O)NC)c2)[C@H](C)[C@H]2OC(=O)O[C@@]21C | > 256 µg/mL | 64 µg/mL (≈ 53.7 µM) | >4 | > 256 µg/mL | 64 µg/mL (≈ 53.7 µM) | >8 | > 32 µg/mL | 4 µg/mL (≈ 3.35 µM) | 1 | 2 µg/mL (≈ 1.68 µM) | 2 µg/mL (≈ 1.68 µM) | 8 | 16 µg/mL (≈ 13.4 µM) | 2 µg/mL (≈ 1.68 µM) | 4 | 0.12 µg/mL (≈ 0.101 µM) | 2 | 0.03 µg/mL (≈ 0.0252 µM) | 0.03 µg/mL (≈ 0.0252 µM) | 0.016 µg/mL (≈ 0.0134 µM) | Selectivity ratio [21]: >4
2 | CC[C@H]1OC(=O)[C@H](C)[C@@H](OC(=O)CCN2CCN(c3c(F)cc4c(=O)c(C(=O)O)cn(C5CC5)c4c3OC)CC2C)[C@H](C)[C@@H](O[C@@H]2O[C@H](C)C[C@H](N(C)C)[C@H]2O)[C@](C)(OC)C[C@@H](C)/C(=N\OCC#Cc2cncc(C(=O)NC)c2)[C@H](C)[C@H]2OC(=O)O[C@@]21C (some centres not stated) | 32 µg/mL (≈ 26 µM) | 32 µg/mL (≈ 26 µM) | – | > 256 µg/mL | > 256 µg/mL | >8 | > 128 µg/mL | 16 µg/mL (≈ 13 µM) | 1 | 2 µg/mL (≈ 1.62 µM) | 2 µg/mL (≈ 1.62 µM) | >8 | > 128 µg/mL | 16 µg/mL (≈ 13 µM) | 4 | 4 µg/mL (≈ 3.25 µM) | 2 | 1 µg/mL (≈ 0.811 µM) | 1 µg/mL (≈ 0.811 µM) | 0.5 µg/mL (≈ 0.406 µM) | Selectivity ratio [21]: 1
3 | CC[C@H]1OC(=O)[C@H](C)[C@@H](OC(=O)Cc2ccccn2)[C@H](C)[C@@H](O[C@@H]2O[C@H](C)C[C@H](N(C)C)[C@H]2O)[C@](C)(OC(=O)CCN2CCN(c3c(F)cc4c(=O)c(C(=O)O)cn(C5CC5)c4c3OC)CC2C)C[C@@H](C)CN(C)[C@H](C)[C@@H](O)[C@]1(C)O (some centres not stated) | 8 µg/mL (≈ 7.02 µM) | 8 µg/mL (≈ 7.02 µM) | – | > 256 µg/mL | 128 µg/mL (≈ 112 µM) | >8 | > 64 µg/mL | 8 µg/mL (≈ 7.02 µM) | 1 | 0.5 µg/mL (≈ 0.439 µM) | 0.5 µg/mL (≈ 0.439 µM) | 1 | 8 µg/mL (≈ 7.02 µM) | 8 µg/mL (≈ 7.02 µM) | 4 | 8 µg/mL (≈ 7.02 µM) | 2 | 2 µg/mL (≈ 1.76 µM) | 1 µg/mL (≈ 0.878 µM) | 0.5 µg/mL (≈ 0.439 µM) | Selectivity ratio [21]: 1
4 | CC[C@H]1OC(=O)[C@H](C)[C@@H](OC(=O)CCNCCCNc2cc3c(=O)c(C(=O)O)cn(C4CC4)c3cc2Cl)[C@H](C)[C@@H](O[C@@H]2O[C@H](C)C[C@H](N(C)C)[C@H]2O)[C@](C)(OC)C[C@@H](C)/C(=N\OC)[C@H](C)[C@H]2OC(=O)O[C@@]21C | 256 µg/mL (≈ 247 µM) | 128 µg/mL (≈ 124 µM) | >8 | > 256 µg/mL | 32 µg/mL (≈ 30.9 µM) | 4 | 16 µg/mL (≈ 15.5 µM) | 4 µg/mL (≈ 3.87 µM) | 1 | 256 µg/mL (≈ 247 µM) | 256 µg/mL (≈ 247 µM) | 2 | 16 µg/mL (≈ 15.5 µM) | 8 µg/mL (≈ 7.73 µM) | 1 | 2 µg/mL (≈ 1.93 µM) | 2 | 2 µg/mL (≈ 1.93 µM) | 0.5 µg/mL (≈ 0.483 µM) | 0.25 µg/mL (≈ 0.242 µM) | Selectivity ratio [21]: 2
5 | CC[C@H]1OC(=O)[C@H](C)[C@@H](OC(=O)CCN2CCN(c3nc4c(cc3F)c(=O)c(C(=O)O)cn4CC)CC2)[C@H](C)[C@@H](O[C@@H]2O[C@H](C)C[C@H](N(C)C)[C@H]2O)[C@](C)(OC)C[C@@H](C)/C(=N\OCC#Cc2cncc(C(=O)NC)c2)[C@H](C)[C@H]2OC(=O)O[C@@]21C | > 256 µg/mL | > 256 µg/mL | >4 | > 256 µg/mL | 64 µg/mL (≈ 54.4 µM) | >8 | > 32 µg/mL | 4 µg/mL (≈ 3.4 µM) | 1 | 32 µg/mL (≈ 27.2 µM) | 32 µg/mL (≈ 27.2 µM) | >8 | > 32 µg/mL | 4 µg/mL (≈ 3.4 µM) | 4 | 0.25 µg/mL (≈ 0.212 µM) | 1 | 0.06 µg/mL (≈ 0.051 µM) | 0.03 µg/mL (≈ 0.0255 µM) | 0.03 µg/mL (≈ 0.0255 µM) | –
6 | CC[C@H]1OC(=O)[C@H](C)[C@@H](OC(=O)CCN2CCN(c3cc4c(cc3F)c(=O)c(C(=O)O)cn4CC)CC2)[C@H](C)[C@@H](O[C@@H]2O[C@H](C)C[C@H](N(C)C)[C@H]2O)[C@](C)(OC)C[C@@H](C)/C(=N\OCC#Cc2cncc(C(=O)NC)c2)[C@H](C)[C@H]2OC(=O)O[C@@]21C | > 256 µg/mL | > 256 µg/mL | >4 | > 256 µg/mL | 64 µg/mL (≈ 54.4 µM) | >8 | > 128 µg/mL | 16 µg/mL (≈ 13.6 µM) | 1 | 16 µg/mL (≈ 13.6 µM) | 16 µg/mL (≈ 13.6 µM) | >8 | > 64 µg/mL | 8 µg/mL (≈ 6.8 µM) | 8 | 1 µg/mL (≈ 0.85 µM) | 1 | 0.12 µg/mL (≈ 0.102 µM) | 0.12 µg/mL (≈ 0.102 µM) | 0.12 µg/mL (≈ 0.102 µM) | –
7 | CC[C@H]1OC(=O)[C@H](C)[C@@H](OC(=O)CCNCCCCNc2cc3c(cc2F)c(=O)c(C(=O)O)cn3C2CC2)[C@H](C)[C@@H](O[C@@H]2O[C@H](C)C[C@H](N(C)C)[C@H]2O)[C@](C)(OC)C[C@@H](C)/C(=N\OC)[C@H](C)[C@H]2OC(=O)O[C@@]21C | > 256 µg/mL | 128 µg/mL (≈ 124 µM) | 2 | 8 µg/mL (≈ 7.75 µM) | 4 µg/mL (≈ 3.88 µM) | 2 | 0.016 µg/mL (≈ 0.0155 µM) | ≤ 0.008 µg/mL | 2 | 32 µg/mL (≈ 31 µM) | 16 µg/mL (≈ 15.5 µM) | 2 | 16 µg/mL (≈ 15.5 µM) | 8 µg/mL (≈ 7.75 µM) | 1 | 0.5 µg/mL (≈ 0.484 µM) | 2 | 0.5 µg/mL (≈ 0.484 µM) | 0.125 µg/mL (≈ 0.121 µM) | 0.062 µg/mL (≈ 0.0601 µM) | –
8 | CC[C@H]1OC(=O)[C@H](C)[C@@H](OC(=O)CCNCCCCNc2cc3c(cc2F)c(=O)c(C(=O)O)cn3C2CC2)[C@H](C)[C@@H](O[C@@H]2O[C@H](C)C[C@H](N(C)C)[C@H]2O)[C@](C)(OC)C[C@@H](C)/C(=N\OCC#Cc2cncc(NC(C)=O)c2)[C@H](C)[C@H]2OC(=O)O[C@@]21C | > 256 µg/mL | > 256 µg/mL | 2 | 64 µg/mL (≈ 53.8 µM) | 32 µg/mL (≈ 26.9 µM) | >8 | > 4 µg/mL | 0.5 µg/mL (≈ 0.42 µM) | 1 | 4 µg/mL (≈ 3.36 µM) | 4 µg/mL (≈ 3.36 µM) | 8 | 0.5 µg/mL (≈ 0.42 µM) | 0.06 µg/mL (≈ 0.0504 µM) | 1 | 0.03 µg/mL (≈ 0.0252 µM) | 1 | 0.03 µg/mL (≈ 0.0252 µM) | 0.016 µg/mL (≈ 0.0134 µM) | 0.016 µg/mL (≈ 0.0134 µM) | –
